# Values of other authors as cited in patent US20250268832A1, “Pretomanid Compositions” (The Global Alliance for TB Drug Development, Inc., priority 2019, published 2025).
# What was measured:
# [1] = tested on: drug-resistant clinical isolates; details: background statement
# [2] = tested on: Mycobacterium tuberculosis; details: background statement
# [3] = poorly soluble
smiles,measurement,setting,value
"O=[N+]([O-])c1cn2c(n1)OC[C@@H](OCc1ccc(OC(F)(F)F)cc1)C2 [Pretomanid, (65)-2-nitro-6-{[4-(trifluoromethoxy)benzyl]oxy}-6,7,-dihydro-5H-imidazol[2.1b][1.3]oxazine]",activity in vitro against drug-resistant clinical isolates,[1],activity in vitro against all tested drug-resistant clinical isolates
same,activity in mice,[2],potent bactericidal and sterilizing agent
same,Biopharmaceutics Classification System (BCS) class,[3],Class II/IV
